Results taken from PubChem BioAssay (NCI).
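Following 48 hours of exposure in 96-well plates, responses at five concentrations were used to interpolate endpoints linearly. GI50 marks 50% less growth. The concentration for full growth arrest is given as TGI.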

Tests used:
Test in all cases: DTP human tumour cell line panel, 48 h
786-0 renal = tested on: 786-0 renal
T-47D breast = tested on: T-47D breast
ACHN renal = tested on: ACHN renal
U251 CNS = tested on: U251 CNS
HOP-92 NSCLC = tested on: HOP-92 NSCLC
MALME-3M melanoma = tested on: MALME-3M melanoma
SK-OV-3 ovarian = tested on: SK-OV-3 ovarian
LOX IMVI melanoma = tested on: LOX IMVI melanoma
SK-MEL-28 melanoma = tested on: SK-MEL-28 melanoma
SW-620 colon = tested on: SW-620 colon

SMILES | GI50 (786-0 renal) [µM] | TGI (786-0 renal) [µM] | GI50 (T-47D breast) [µM] | TGI (T-47D breast) [µM] | GI50 (ACHN renal) [µM] | TGI (ACHN renal) [µM] | GI50 (U251 CNS) [µM] | TGI (U251 CNS) [µM] | GI50 (HOP-92 NSCLC) [µM] | TGI (HOP-92 NSCLC) [µM] | GI50 (MALME-3M melanoma) [µM] | TGI (MALME-3M melanoma) [µM] | GI50 (SK-OV-3 ovarian) [µM] | TGI (SK-OV-3 ovarian) [µM] | GI50 (LOX IMVI melanoma) [µM] | TGI (LOX IMVI melanoma) [µM] | GI50 (SK-MEL-28 melanoma) [µM] | TGI (SK-MEL-28 melanoma) [µM] | GI50 (SW-620 colon) [µM] | TGI (SW-620 colon) [µM]
CCOC(=O)C1=C(C)NC(C)=C(C(=O)OCC)C1c1cc(Br)c(O)c(OC)c1 | 4.01 | 18 | 8.53 | 46.6 | 5.56 | 22 | 4.01 | 15.6 | 1.82 | 12.3 | 10.6 | 32.7 | 2.92 | 7.38 | 5.23 | 18.6 | 4.32 | 16.7 | 4.12 | 16.3
C[C@@H](Oc1cc(-c2cnn(C3CC4(CNC4)C3)c2)cnc1N)c1c(Cl)ccc(F)c1Cl | 5.6 | 19.1 | 3.89 | 16.7 | 4.89 | 18.3 | 5.01 | 19.1 | 0.848 | 5.12 | 1.53 | 3.89 | 7.98 | 21.1 | 1.96 | 6.79 | 1.74 | 4 | 1.31 | 11.9
O=Cc1c[nH]c2ccc(-c3csc4ccccc34)cc12 | 4.26 | 41.9 | 9.15 | > 100 | 5.11 | > 100 | 3.64 | 21 | 7.06 | 84.7 | 4.39 | 37.5 | 5.34 | > 100 | 3.87 | > 100 | 5.49 | > 100 | 4.31 | > 100
COc1ccc(C2=NNC(c3cc(Cc4ccc(O)c(C5CC(c6ccc(OC)cc6)=NN5)c4)ccc3O)C2)cc1 (stereo not given) | 8.39 | 93.4 | 4.61 | > 100 | 5.56 | > 100 | 5.84 | > 100 | 8.28 | > 100 | 48.9 | > 100 | 31.6 | > 100 | 7.38 | 32.3 | 10.2 | 34.1 | 7.96 | > 100
COc1ccc(/C=C/c2ccnc3ccccc23)cc1 |  | 30.6 |  | 37.4 |  | 27 |  | 31.9 |  | 16.5 |  | 30.6 |  | 33.5 |  | 31 |  | 29.4 |  | 36.3
CCc1ccc(Oc2nccc(-c3c(-c4ccc(F)cc4)ncn3C3CCNCC3)n2)cc1 | 4.91 | 10.4 | 4.3 | 11.6 | 4.77 | 13.6 | 4.06 | 9.16 | 1.17 | 9.53 | 4.62 | 9.13 | 4.37 | 9.21 | 4.78 | 10.2 | 4.73 | 8.44 | 4.35 | 8.74
Nc1cccc2c1CN(C1CCC(=O)NC1=O)C2=O (stereo not given) | > 100 | > 100 | > 100 | > 100 | > 100 | > 100 | > 100 | > 100 | > 34.2 | > 100 | > 100 | > 100 | > 100 | > 100 | > 100 | > 100 | > 100 | > 100 | > 100 | > 100
COc1cc(-c2nccc3[nH]c(-c4cccc5[nH]ccc45)nc23)cc(OC)c1OC | < 0.01 | 2.92 | 4.94 | 27.3 | < 0.01 | 11.6 | < 0.01 | 13 | < 0.01 | 19 | 2.71 | 15.9 | < 0.01 | 14.8 | < 0.01 | 5.98 | 0.0347 | 15.3 | < 0.01 | 5.13
CC[C@@]1(OC(=O)C(N)CCC(=O)O)C(=O)OCc2c1cc1n(c2=O)Cc2cc3ccccc3nc2-1 (stereo not given in full) |  | 0.159 |  | > 100 |  | 0.561 |  | 1.98 |  | 1.57 |  | 2.79 |  | 3.33 |  | 0.482 |  | 51.8 |  | > 21.1
O=C1c2cccc3cccc(c23)C(=O)N1CC#Cc1ccc2c3c(cccc13)C(=O)N(CCN1CCNCC1)C2=O | 1.86 | 3.53 | 2.03 | 5.11 | 2.75 | 7.96 | 1.87 | 3.78 | 4 | 20.5 | 1.84 | 3.7 | 25.7 | 62.6 | 1.94 | 3.87 | 1.9 | 3.55 | 1.94 | 3.79
NC(Cn1ccc(=O)c(O)c1)C(=O)O (stereo not given) |  | > 100 |  | > 100 |  | > 100 |  | > 100 |  | > 100 |  | > 100 |  | > 100 |  | > 100 |  | > 100 |  | > 100
O=C1C=CC(=O)c2c1cc1ccccc1c2O |  | 18.7 |  | 3.49 |  | 8.26 |  | 27.1 |  | 3.61 |  | 17.2 |  | 34.3 |  | 9.06 |  | 20 |  | 3.59
COc1ccc(Oc2nc(Nc3ccc(N4CCOCC4)cc3)ncc2NC(=O)Nc2cc(OC)cc(OC)c2)cc1 | 1.31 | 5.74 | 5.13 | > 33.3 | 4.23 | 20.4 | 1.38 | 5.88 | 1.26 | 5.1 | 0.969 | 3.27 | 7.86 | 25.6 | 3.59 | 12.6 | 2.5 | 9.73 | 3.17 | > 33.3
S=C(Nc1ccc(Cl)cc1)SC1CCCCC1 |  | > 100 |  | > 100 |  | 36.6 |  | > 100 |  | 71.2 |  | 85.9 |  | 94.9 |  | 42.8 |  | 49.6 |  | > 100
Oc1[nH]c2ccc(Cl)cc2c1/C=c1/ccc2c(c1)N=C(c1ccc(C(F)(F)F)cc1)N=2 | 1.75 | 3.31 | 2.86 | 9.23 | 3.24 | 15.4 | 1.74 | 3.47 | 1.68 | 4.35 | 2.34 | 6.57 | 4.19 | 13.9 | 1.77 | 3.42 | 2.35 | 6.71 | 1.97 | 4.1
